Source: the supplement of paper PMC4862054

What was measured:
Assay in all cases: normalised response (% of control), CellTiter-Glo; higher = more viable cells (100 = DMSO, 0 = benzethonium chloride kill control)
Conditions in all cases: incubation time: 72 h
MCF-10A [1] = test system: MCF-10A
Outline: (§1)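 Breast cancer cell lines, seeded at 20 µl suspension per well, were incubated for 72 h in 384-well plates containing compound at 5 concentrations. These concentrations rose in 10-fold steps over a 10,000-fold range set for each compound. CellTox Green fluorescence (485/520 nm) was read, then CellTiter-Glo luminescence after 10 min at room temperature, and each plate was normalised to 0.1 % DMSO (100) and a positive kill control (0). Values are normalised signals, each at one concentration.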

HCC1599 [2] = test system: HCC1599
Outline: as §1

MDA-MB-453 [3] = test system: MDA-MB-453
Outline: as §1

CAL-120 [4] = test system: CAL-120
Outline: as §1

Hs578T [5] = test system: Hs578T
Outline: as §1

MDA-MB-231 = test system: MDA-MB-231
Experimental: (§2)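 DSRT, 72 h incubation, CellTox Green / CellTiter-Glo readout. Signal is normalised to DMSO and benzethonium chloride controls. Value is the normalised response at the highest dose.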

CAL-85-1 = test system: CAL-85-1
Experimental: as §2

CAL-51 = test system: CAL-51
Experimental: as §2

BT-474 = test system: BT-474
Experimental: as §2

MCF-10A [6] = test system: MCF-10A; remark: listed apart in the source
Experimental: as §2

HDQ-P1 = test system: HDQ-P1
Experimental: as §2

HCC1599 [7] = test system: HCC1599; remark: listed apart in the source
Experimental: as §2

CAL-148 = test system: CAL-148
Experimental: as §2

MDA-MB-453 [8] = test system: MDA-MB-453; remark: listed apart in the source
Experimental: as §2

MDA-MB-468 = test system: MDA-MB-468
Experimental: as §2

DU-4475 = test system: DU-4475
Experimental: as §2

CAL-120 [9] = test system: CAL-120; remark: listed apart in the source
Experimental: as §2

MDA-MB-436 = test system: MDA-MB-436
Experimental: as §2

BT-549 = test system: BT-549
Experimental: as §2

SK-BR-3 = test system: SK-BR-3
Experimental: as §2

HCC1143 = test system: HCC1143
Experimental: as §2

HCC1937 = test system: HCC1937
Experimental: as §2

MFM-223 = test system: MFM-223
Experimental: as §2

Hs578T [10] = test system: Hs578T; remark: listed apart in the source
Experimental: as §2

Row | Structure (SMILES) | normalised response (MCF-10A [1]) [%] | normalised response (HCC1599 [2]) [%] | normalised response (MDA-MB-453 [3]) [%] | normalised response (CAL-120 [4]) [%] | normalised response (Hs578T [5]) [%] | normalised response (MDA-MB-231) [%] | normalised response (CAL-85-1) [%] | normalised response (CAL-51) [%] | normalised response (BT-474) [%] | normalised response (MCF-10A [6]) [%] | normalised response (HDQ-P1) [%] | normalised response (HCC1599 [7]) [%] | normalised response (CAL-148) [%] | normalised response (MDA-MB-453 [8]) [%] | normalised response (MDA-MB-468) [%] | normalised response (DU-4475) [%] | normalised response (CAL-120 [9]) [%] | normalised response (MDA-MB-436) [%] | normalised response (BT-549) [%] | normalised response (SK-BR-3) [%] | normalised response (HCC1143) [%] | normalised response (HCC1937) [%] | normalised response (MFM-223) [%] | normalised response (Hs578T [10]) [%]
1 | COc1ccc(S(=O)(=O)Nc2cccnc2Nc2ccc(O)cc2)cc1 [ABT-751] (1000 nM) | 84.4 | 43.5 | 54.8 | 60.9 | 45.6 | – | – | – | – | – | – | – | – | – | – | – | – | – | – | – | – | – | – | –
2 | COc1ccc(S(=O)(=O)Nc2cccnc2Nc2ccc(O)cc2)cc1 [ABT-751] (10000 nM) | – | – | – | – | – | 46.6 | 40.9 | 25.2 | 53.8 | 59.8 | 70.1 | 16.5 | 41.2 | 50.9 | 29.2 | 43.6 | 61.1 | 26.8 | 40.3 | 12.3 | 55.5 | 71.3 | 38.4 | 17.6
3 | Cc1cc(Nc2nc(N[C@@H](C)c3ncc(F)cn3)ncc2Cl)[nH]n1 [AZD1480] (100 nM) | 93.4 | 111 | 94.1 | 97.3 | 101 | – | – | – | – | – | – | – | – | – | – | – | – | – | – | – | – | – | – | –
4 | Cc1cc(Nc2nc(N[C@@H](C)c3ncc(F)cn3)ncc2Cl)[nH]n1 [AZD1480] (1000 nM) | – | – | – | – | – | 78.2 | 96 | 110 | 82.5 | 89.5 | 93.6 | 104 | 87.3 | 72.4 | 84.6 | 81.7 | 70 | 91.6 | 82.1 | 90.5 | 92.7 | 96 | 50.8 | 82
5 | CNC(=O)c1ccccc1Sc1ccc2c(/C=C/c3ccccn3)n[nH]c2c1 [Axitinib] (1000 nM) | 95 | 82 | 87.9 | 95.3 | 93.8 | – | – | – | – | – | – | – | – | – | – | – | – | – | – | – | – | – | – | –
6 | CNC(=O)c1ccccc1Sc1ccc2c(/C=C/c3ccccn3)n[nH]c2c1 [Axitinib] (10000 nM) | – | – | – | – | – | 94.5 | 120 | 38.6 | 80.4 | 78.6 | 77.8 | 69 | 67 | 113 | 24.5 | 76 | 75.8 | 64.1 | 49.7 | 77 | 79 | 79.2 | 49.3 | 61.4
7 | CC(O)(CS(=O)(=O)c1ccc(F)cc1)C(=O)Nc1ccc(C#N)c(C(F)(F)F)c1 (stereo not given) [Bicalutamide] (1000 nM) | 110 | 120 | 95 | 108 | 95.6 | – | – | – | – | – | – | – | – | – | – | – | – | – | – | – | – | – | – | –
8 | CC(O)(CS(=O)(=O)c1ccc(F)cc1)C(=O)Nc1ccc(C#N)c(C(F)(F)F)c1 (stereo not given) [Bicalutamide] (10000 nM) | – | – | – | – | – | 106 | 101 | 92.8 | 108 | 107 | 96.4 | 95.5 | 107 | 88.5 | 109 | 98.4 | 105 | 114 | 94.2 | 103 | 104 | 93.8 | 101 | 95.6
9 | CCNC(=O)CCC/C=C\C[C@@H]1[C@@H](/C=C/[C@@H](O)CCc2ccccc2)[C@H](O)C[C@@H]1O [Bimatoprost] (550 nM) | 102 | 105 | 93.2 | 97.1 | 93 | – | – | – | – | – | – | – | – | – | – | – | – | – | – | – | – | – | – | –
10 | CCNC(=O)CCC/C=C\C[C@@H]1[C@@H](/C=C/[C@@H](O)CCc2ccccc2)[C@H](O)C[C@@H]1O [Bimatoprost] (5500 nM) | – | – | – | – | – | 99.5 | 91.1 | 160 | 95 | 90.3 | 91.7 | 89.5 | 88.3 | 91.2 | 91.6 | 96.7 | 95.8 | 104 | 102 | 83.8 | 94.8 | 91.9 | 88.2 | 101
11 | COc1cc(Nc2c(C#N)cnc3cc(OCCCN4CCN(C)CC4)c(OC)cc23)c(Cl)cc1Cl [Bosutinib] (1000 nM) | 34.5 | 86.8 | 94.9 | 83.8 | 102 | – | – | – | – | – | – | – | – | – | – | – | – | – | – | – | – | – | – | –
